Key:
[1] = tested on: cytochrome P-450 (CYP) 3A; conditions: cited from earlier work
[2] = tested on: Mycobacterium avium ATCC700898; assay: Test3: mouse lung infection model, CFU in lungs after 2 weeks of treatment; assay type: in vivo; conditions: day 15, AZM 10 mg/kg, RFP 10 mg/kg, ETB 100 mg/kg, CFZ 20 mg/kg, Q203 5 mg/kg
Description: (§1) Almost protocol was the same as the protocol described in Test1 above.

[3] = tested on: Mycobacterium avium ATCC700898; assay: Test1: mouse lung infection model, CFU in lungs after 2 weeks of treatment
Description: There were 9 study groups and 4 mice per group
All treatments were evaluated on Mycobacterium avium ATCC700898.
All formulations prepared in 20% Tween20, 80% aq. (20% HP-ß-CD and 0. 6% HPMC, pH3).
All formulations were solutions and prepared every day.
Time Schedule, after mice were infected.
The mice were infected with Mycobacterium avium strain.
When 0.07 mL of this dilution is injected, each mouse receives 10^6 bacteria.
36 female 8-weeks old BALB/c mice, Charles River, were inoculated intranasally with 0.07 mL of a bacterial suspension containing ±10^6 colony forming units (CFU). […]
The effectiveness of treatments was assessed by counting the numbers of colony-forming-units (CFU) in the lungs. • 1.8 mL Mueller Hinton Broth (MHB) was added to each homogenization tube containing lung. • Lungs were homogenized, and four 10-fold serial dilutions were made in MHB. • From each individual lung, 100 μL of the undiluted suspension and four serial 10-fold dilutions, were plated on 7H10 agar plates. • CFU's were counted after incubation at 35° C. for 2 weeks. • The bactericidal effect of the treatment was defined as a significant decrease of the mean number of CFU in the treated group compared to pre-treatment value.

[4] = tested on: Mycobacterium avium ATCC700898; assay: Test2: mouse lung infection model, CFU in lungs after 2 weeks of treatment; assay type: in vivo; conditions: day 15, CAM 200 mg/kg
Description: There were 6 study groups and 4 mice per group
as §1

[5] = tested on: M. intracellulare; conditions: in vitro, majority of M. intracellulare isolates; cited from earlier work
[6] = tested on: M. avium; conditions: in vitro; cited from earlier work
[7] = tested on: MAC; conditions: pulmonary disease patients infected by MAC; relapse still occurred; cited from earlier work
[8] = biological target: cytochrome bc1 (Mycobacterium tuberculosis, UniProt P9WP37); conditions: described in WO2017/049321 (HT-21) and WO2011/113606 (Q203); cited from earlier work
[9] = tested on: TB; conditions: in vitro and in vivo mouse model; cited from earlier work

cytochrome bc1, sequence (P9WP37 whole entry, looked up): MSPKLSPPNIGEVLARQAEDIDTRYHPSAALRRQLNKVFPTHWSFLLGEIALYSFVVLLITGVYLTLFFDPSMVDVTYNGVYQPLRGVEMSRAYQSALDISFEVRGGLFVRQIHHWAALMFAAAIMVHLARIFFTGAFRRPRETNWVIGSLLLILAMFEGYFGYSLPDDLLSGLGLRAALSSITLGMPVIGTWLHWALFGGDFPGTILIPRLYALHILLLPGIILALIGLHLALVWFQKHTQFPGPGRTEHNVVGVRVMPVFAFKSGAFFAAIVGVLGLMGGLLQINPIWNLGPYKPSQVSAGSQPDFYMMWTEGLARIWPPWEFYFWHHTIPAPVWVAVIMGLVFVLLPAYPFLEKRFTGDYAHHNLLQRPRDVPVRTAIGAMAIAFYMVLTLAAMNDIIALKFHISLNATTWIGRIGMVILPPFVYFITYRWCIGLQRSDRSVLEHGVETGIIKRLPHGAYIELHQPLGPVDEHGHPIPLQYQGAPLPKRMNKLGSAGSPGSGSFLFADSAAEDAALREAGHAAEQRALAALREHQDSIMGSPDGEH

CC[C@H]1OC(=O)[C@H](C)[C@@H](O[C@H]2C[C@@](C)(OC)[C@@H](O)[C@H](C)O2)[C@H](C)[C@@H](O[C@@H]2O[C@H](C)C[C@H](N(C)C)[C@H]2O)[C@](C)(O)C[C@@H](C)CN(C)[C@H](C)[C@@H](O)[C@]1(C)O [AZM, Azithromycin]
inhibition of CYP3A [1]: does not inhibit
Mean Log10 (CFU in lungs) [2]: 6.19

CC[C@H]1OC(=O)[C@H](C)[C@@H](O[C@H]2C[C@@](C)(OC)[C@@H](O)[C@H](C)O2)[C@H](C)[C@@H](O[C@@H]2O[C@H](C)C[C@H](N(C)C)[C@H]2O)[C@](C)(OC)C[C@@H](C)C(=O)[C@H](C)[C@@H](O)[C@]1(C)O [CAM, Clarithromycin]
Mean Log10 (CFU in lungs) ([3]; BALB/c mice, day 15, oral once daily, 10 doses, CAM 200 mg/kg, RFP 20 mg/kg, ETB 100 mg/kg, CFZ 20 mg/kg): 3.98
inhibition of CYP3A [1]: inhibits
drop in mean log 10 CFU from Control 2 [4]: 1.0
Mean Log10 (CFU in lungs) ([4]; CFZ 20 mg/kg, HT-21 5 mg/kg or Q203 5 mg/kg): 4.85

CC(C)/N=c1\cc2n(-c3ccc(Cl)cc3)c3ccccc3nc-2cc1Nc1ccc(Cl)cc1 [CFZ, Clofazimine]
MIC [5]: < 1 µg/mL
MIC [6]: 1 to 4 µg/mL
proportion of patients converted to negative cultures [7]: significantly greater proportion

Cc1ccn2c(C(=O)NCc3ccc(N4CCCN(c5ccc(C(F)(F)F)cc5)CC4)c(F)c3)c(C)nc2c1 [HT-21]
efficacy (CFU in lungs), in words ([3]; HT-21 200 mg/kg added to clarithromycin+clofazimine, cut off 2.00): the effect reached plateau
cytochrome bc1 inhibitory activity [8]: excellent cytochrome bc1 inhibitory activity

CCc1nc2cc(C)ccn2c1C(=O)NCc1ccc(N2CCC(c3ccc(OC(F)(F)F)cc3)CC2)cc1 [Q203]
cytochrome bc1 inhibitory activity [8]: excellent cytochrome bc1 inhibitory activity
growth of TB [9]: inhibited the growth of TB

From patent US20220235047A1, “A MEDICAMENT FOR TREATING MYCOBACTERIAL INFECTION CHARACTERIZED BY COMBINING A CYTOCHROME bc1 INHIBITOR WITH CLARITHROMYCIN OR AZITHROMYCIN AND CLOFAZIMINE” (priority 2019, published 2022)
